Reference: patent US20220259164A1, “USE OF AMINOTHIOL COMPOUNDS AS CEREBRAL NERVE OR HEART PROTECTIVE AGENT” (SHANGHAI KECHOW PHARMA, INC., priority 2019, published 2022)
“And” between values parts separate entries of the source, which are not always exact repeats. Equal entries are not always repeated. Where a SMILES comes first, the peptide text is derived from it. [ ]: non-standard residue; d: D form. NMeC = CN[C@@H](CS)C(=O)O

How the values were obtained:
[1] = system: bleomycin (BLM)-induced scleroderma mouse model; experiment: Hydroxyproline level in skin lesion, BLM-induced scleroderma mouse model; type: in vivo, mice; conditions: compound A (hydrochloride) 600 mg/kg/d by gavage or compound B (trifluoroacetate) 200 mg/kg/d i.p., 28 days with BLM
Description: (§1) Materials: C57BL/6 female mice, weighing 20-25 g, were purchased from Shanghai SLAC Laboratory Animal Co., Ltd. Using a random number table method, 24 mice were divided into a blank control group (1), a scleroderma model group (2), a scleroderma+compound A treatment group (3), and a scleroderma+compound B treatment group (4), with 6 mice in each group. Bleomycin (BLM) was purchased from Sigma. An H-E staining kit was purchased from Beijing Solarbio Science & Technology Co., Ltd. Compound A used in this example was in the form of a hydrochloride thereof, and compound B was in the form of a trifluoroacetate thereof.
(§2) Method: The intended injection site (area 1 cm^2) of the mice was shaved using an electric shaver. […] Conventional iodine tincture was used to disinfect the back skin of the mice, and a local diseased skin tissue was surgically cut, fixed in 4% paraformaldehyde, embedded in paraffin, sectioned, and analyzed by H-E staining. […]
(§3) Method: Part of the skin lesion tissue of the mice was taken, and the contents of hydroxyproline and hydrogen peroxide in the skin lesion region were detected according to the requirements in the kit instructions.

[2] = system: bleomycin (BLM)-induced scleroderma mouse model; experiment: Dermal fibrosis in bleomycin (BLM)-induced scleroderma mouse model (H-E staining); type: in vivo, mice; conditions: compound A (hydrochloride) 600 mg/kg/d by gavage or compound B (trifluoroacetate) 200 mg/kg/d i.p., 28 days with BLM; compared with BLM model group
Description: as §1
Method: The intended injection site (area 1 cm^2) of the mice was shaved using an electric shaver. The mice in groups (1) and (2) were intraperitoneally injected with PBS, the mice in group (3) were given compound A (600 mg/kg/d, dissolved in PBS) by gavage, and the mice in group (4) were intraperitoneally injected with compound B (200 mg/kg/d, dissolved in PBS). Immediately thereafter, the mice in group (1) were injected with PBS subcutaneously on the back, and the mice in groups (2) and (4) were injected with BLM (1 mg/ml, dissolved in PBS) subcutaneously on the back; and 15 min later, the mice in group (3) were injected with BLM (1 mg/ml, dissolved in PBS) subcutaneously on the back. After 28 days of continuous administration once a day, the animals were sacrificed on day 29 by cervical dislocation. Conventional iodine tincture was used to disinfect the back skin of the mice, and a local diseased skin tissue was surgically cut, fixed in 4% paraformaldehyde, embedded in paraffin, sectioned, and analyzed by H-E staining.

[3] = system: SD rat cerebral ischemia reperfusion injury model (MCAO); experiment: TTC staining and cerebral infarction area in rat ischemic stroke model (MCAO); type: in vivo; conditions: for Cerebral infarction area: individual rats
Experimental: Healthy male SPF grade SD rats (body weight 250-300 g) were selected. (1) The rats were anesthetized, the skin on the neck was prepared, and the body temperature was maintained at 37±0.5° C. (2) A midline neck incision was made to expose the right common carotid artery, internal carotid artery and external carotid artery. A 6-0 silk thread was used to ligate the distal end of the external carotid artery at 4 mm from the bifurcation of the common carotid artery, another 6-0 silk thread was inserted at the external carotid artery, and a slipknot was tied near the bifurcation of the common carotid artery. (3) An arterial clamp was used to clamp the common carotid artery. A small opening was cut on the external carotid artery at 3 mm from the bifurcation of the common carotid artery, and a 0.33 mm diameter nylon thread with a treated head end was inserted through the small opening, entered the internal carotid artery, and was inserted inward to the middle cerebral artery, wherein the insertion depth of the nylon thread was about 16±1 mm from the bifurcation of the common carotid artery. (4) The thread embolism was removed 90 min after ischemia, the proximal end of the external artery was ligated with a 6-0 silk thread, the neck wound was sutured with a 3-0 silk thread, the wound was disinfected with povidone iodine, the rats were placed on a heating pad, and after being awake, they were placed in a constant temperature rearing box for rearing. […] After the rats were anesthetized, the brain tissues were taken from the rats, placed in a refrigerator and frozen at -20° C. for 30 min. 1% TTC (W/V) was prepared with PBS and placed in a water bath at 37° C. until the TTC was dissolved, and the frozen brain tissue was sliced, placed in 10 ml of the TTC solution and incubated at 37° C. for 10 min. The brain slices were turned from time to time to make the tissue evenly stained. Normal brain tissue was bright red after staining, whereas the infarction region was pale white in color or light white in a black and white image. In addition, a software was used to measure and statistically analyze the infarction area. In a manner same as in Example 1, experimental animals were selected, except that the experiment was divided into seven groups (i.e., groups […], and G, among which groups C, D, and E were given different dosages of administration from Example 1, group F was given edaravone, and group G was given amifostine).

[4] = system: bleomycin (BLM)-induced scleroderma mouse model; experiment: H2O2 level in skin lesion, BLM-induced scleroderma mouse model; type: in vivo, mice; conditions: compound A (hydrochloride) 600 mg/kg/d by gavage or compound B (trifluoroacetate) 200 mg/kg/d i.p., 28 days with BLM
Description: as §1, §2, §3

[5] = system: rat myocardial infarction model (coronary ligation 30 min, reperfusion); experiment: Myocardial infarction model: myocardial infarction range (TTC staining); type: in vivo; conditions: for Infarction range (%): x ± s, n = 10; for Improvement rate (%) of myocardial infarction range: compared with model group
Experimental: 1. The rats were grouped and administered according to the following methods (2) Compound B (i.v.) at 100 mg/kg (3) Compound A (i.v.) at 100 mg/kg (4) Compound A (oral) at 500 mg/kg (5) Isosorbide mononitrate injection (i.v.) at 1 mg/kg (equivalent to clinical equivalent dose). There were 10 rats in each group, and the rats were administered intravenously immediately after 30 min of ischemia and reperfusion, i.v. 10% 1 min+i.v. drip 90% 30 min. The administration volume was 2 ml/rat. Compound A (oral) at 500 mg/kg was administered intragastrically 2 h after reperfusion when the animal was awake, and the administration volume was 10 ml/kg. Note: Compounds A and B used in this example were in the form of hydrochloride salts thereof. Given intraperitoneal injection of 3% sodium pentobarbital at 60 mg/kg for general anesthesia, the rats were fixed on an operating table in the supine position. The surgical field of the anterolateral chest was depilated and routinely disinfected. The skin and muscular layer were cut open, purse-string suture was performed on the muscular layer, the chest was opened on the left at the fourth intercostal space, and the heart was pulled out with a ring-shaped retractor. At the position of the anterior descending coronary artery 3-4 mm below the left atrial appendage, a 6/0 damage-free silk thread was threaded, and a nylon thread with a diameter of 1.6 mm was juxtaposed and ligated together with the anterior descending coronary artery, while the other end was left outside the body for later use. The heart was placed back into the chest cavity, the air in the chest cavity was emptied, and the chest cavity was closed. 30 min after ligation, the nylon thread was carefully removed for reperfusion. Compared with the normal lead II electrocardiogram (ECG-II), ST segment elevation in ECG-II by 0.1 mV or more 30 min after coronary artery ligation was regarded as successful ischemia.

[6] = Example 2 group D: compound A (trifluoroacetate) 400 mg/kg p.o. 2.5 h before reperfusion, 400 mg/kg
[7] = Example 2 group E: compound A (trifluoroacetate) 800 mg/kg p.o. 2.5 h before reperfusion, 800 mg/kg
[8] = Example 2 group C: compound B (trifluoroacetate) 100 mg/kg i.p. 5 min before reperfusion, 100 mg/kg

SMILES: CNC(=O)[C@H](CS)NC(=O)[C@H](CS)NC [Compound A, (R)-3-mercapto-N—((R)-3-mercapto-1-(methylamino)-1-oxoprop-2-yl)-2-(methylamino)propionamide] (H-[NMeC]-Cys-NHMe)
- Level of hydroxyproline in the skin lesion site [1]: down-regulated
- Collagen in the dermis and fat layer (H-E staining) [2]: the collagen thickness in the dermis was significantly reduced and the fat layer was significantly thickened
- Thickness of the dermis in the skin lesion area [2]: could better reduce the thickness of the dermis at the skin lesion site
- % Improvement of cerebral infarction area ([3]; Example 1 group E: compound A (trifluoroacetate) 1600 mg/kg p.o. 2.5 h before reperfusion, 1600 mg/kg): 83.9%
- Cerebral infarction area ([3]; Example 1 group E: compound A (trifluoroacetate) 1600 mg/kg p.o. 2.5 h before reperfusion, 24 h, 1600 mg/kg): 40.19 mm^3 and 26.33 mm^3 and 9.18 mm^3
- % Improvement of cerebral infarction area [3, 6]: 72.97%
- Cerebral infarction area [3, 6]: 25.16 mm^3 and 11.23 mm^3 and 20.59 mm^3 and 15.48 mm^3 and 38.04 mm^3 and 82.75 mm^3
- % Improvement of cerebral infarction area [3, 7]: 87.32%
- Cerebral infarction area [3, 7]: 14.23 mm^3 and 0 mm^3 (2×) and 16.93 mm^3 and 12.31 mm^3 and 47.18 mm^3
- Concentration of H2O2 in the skin [4]: reduced
- Infarction range (%) ([5]; compound A (hydrochloride) i.v. 100 mg/kg after 30 min ischemia and reperfusion): 30.5 ± 11 %
- Improvement rate (%) of myocardial infarction range ([5]; compound A (hydrochloride) i.v. 100 mg/kg): 24.5%
- Infarction range (%) ([5]; compound A (hydrochloride) oral 500 mg/kg 2 h after reperfusion): 28.9 ± 12.2 %
- Improvement rate (%) of myocardial infarction range ([5]; compound A (hydrochloride) oral 500 mg/kg): 28.5%

SMILES: CNC(=O)[C@H](CS)NC(=O)[C@H](CS)NC(=O)[C@H](CS)NC [Compound B, (R)-3-mercapto-N—((R)-3-mercapto-1-(((R)-3-mercapto-1-(methylamino)-1-oxoprop-2-yl)amino)-1-oxoprop-2-yl)-2-(methylamino)propionamide] (H-[NMeC]-Cys-Cys-NHMe)
- Level of hydroxyproline in the skin lesion site [1]: down-regulated
- Collagen in the dermis and fat layer (H-E staining) [2]: collagen proliferation in the dermis in the compound B treatment group was improved
- Thickness of the dermis in the skin lesion area [2]: reduced (p<0.01)
- % Improvement of cerebral infarction area ([3]; Example 1 group C: compound B (trifluoroacetate) 200 mg/kg i.p. 5 min before reperfusion, 200 mg/kg): 62.5%
- Cerebral infarction area ([3]; Example 1 group C: compound B (trifluoroacetate) 200 mg/kg i.p. 5 min before reperfusion, 24 h, 200 mg/kg): 67.44 mm^3 and 67.69 mm^3 and 32.84 mm^3 and 23.4 mm^3 and 105.9 mm^3
- % Improvement of cerebral infarction area ([3]; Example 1 group D: compound B (trifluoroacetate) 200 mg/kg i.p. during ischemia and 200 mg/kg i.p. 5 min before reperfusion): 44.4%
- Cerebral infarction area ([3]; Example 1 group D: compound B (trifluoroacetate) 200 mg/kg i.p. during ischemia and 200 mg/kg i.p. 5 min before reperfusion, 24 h): 67.53 mm^3 and 105.5 mm^3
- % Improvement of cerebral infarction area [3, 8]: 59.5%
- Cerebral infarction area [3, 8]: 0 mm^3 and 32.568 mm^3 and 45.956 mm^3 and 21.529 mm^3 and 104.008 mm^3 and 85.208 mm^3
- Concentration of H2O2 in the skin [4]: reduced
- Infarction range (%) ([5]; compound B (hydrochloride) i.v. 100 mg/kg after 30 min ischemia and reperfusion): 30.2 ± 8.2 %
- Improvement rate (%) of myocardial infarction range ([5]; compound B (hydrochloride) i.v. 100 mg/kg): 25.2%
